Biological target: T1, Endothelin-1 receptor (Homo sapiens, UniProt P25101); note: in other assays of this panel Not Active means under 50% inhibition at 10 µM
T1 sequence (P25101 whole entry): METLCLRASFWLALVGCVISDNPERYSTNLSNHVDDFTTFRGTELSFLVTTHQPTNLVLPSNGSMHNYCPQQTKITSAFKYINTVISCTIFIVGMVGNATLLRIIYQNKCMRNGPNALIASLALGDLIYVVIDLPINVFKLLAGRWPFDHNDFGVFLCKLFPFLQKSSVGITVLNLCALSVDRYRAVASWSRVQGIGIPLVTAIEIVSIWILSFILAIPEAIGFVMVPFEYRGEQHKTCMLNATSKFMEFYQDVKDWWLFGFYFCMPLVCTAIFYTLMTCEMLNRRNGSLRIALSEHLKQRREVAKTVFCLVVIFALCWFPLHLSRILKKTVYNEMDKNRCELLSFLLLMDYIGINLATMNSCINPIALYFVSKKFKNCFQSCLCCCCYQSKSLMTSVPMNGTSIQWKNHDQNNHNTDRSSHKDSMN
Test: not given
Assay type: cell membranes, Membrane
Conditions: cho-k1

Compound	IC50	Ki
CCCCCCCCNC(C)C(O)c1ccc(SC(C)C)cc1 (stereo not drawn) [SULOCTIDIL]	Not Active	–
O=c1[nH]c(=O)n(C2CCCO2)cc1F (stereo not drawn) [TEGAFUR]	Not Active	–
CC(=N)S [THIOACETAMIDE]	Not Active	–
Cc1ccc(C(=O)c2ccc(CC(=O)O)n2C)cc1 [TOLMETIN]	Not Active	–
CC(=O)OCC(COC(C)=O)OC(C)=O [TRIACETIN]	Not Active	–
TRANSPLATIN	Not Active	Not Active
ZIRCONIUM(IV) CHLORIDE	Not Active	Not Active

Biological target: Glycine receptor (Rattus norvegicus, UniProt P22771+P24524+P07727+P20781); note: in other assays of this panel Not Active means under 50% inhibition at 10 µM
Test: not given
Assay type: cell membranes, Wistar, Spinal cord, Membrane
Conditions: not given

Compound	IC50	Ki
CCCCCCCCNC(C)C(O)c1ccc(SC(C)C)cc1 (stereo not drawn) [SULOCTIDIL]	Not Active	–
O=c1[nH]c(=O)n(C2CCCO2)cc1F (stereo not drawn) [TEGAFUR]	Not Active	–
CC(=N)S [THIOACETAMIDE]	Not Active	–
Cc1ccc(C(=O)c2ccc(CC(=O)O)n2C)cc1 [TOLMETIN]	Not Active	–
CC(=O)OCC(COC(C)=O)OC(C)=O [TRIACETIN]	Not Active	–
TRANSPLATIN	Not Active	Not Active
ZIRCONIUM(IV) CHLORIDE	Not Active	Not Active

Biological target: T2, 3-hydroxy-3-methylglutaryl-coenzyme A reductase (Homo sapiens, UniProt P04035);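 note: enzyme inhibition assay of HMG-CoA reductase using radiolabeled [14C]HMG-CoA as substrate; in other assays of this panel Not Active means under 50% inhibition at 10 µM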
T2 sequence (P04035 whole entry): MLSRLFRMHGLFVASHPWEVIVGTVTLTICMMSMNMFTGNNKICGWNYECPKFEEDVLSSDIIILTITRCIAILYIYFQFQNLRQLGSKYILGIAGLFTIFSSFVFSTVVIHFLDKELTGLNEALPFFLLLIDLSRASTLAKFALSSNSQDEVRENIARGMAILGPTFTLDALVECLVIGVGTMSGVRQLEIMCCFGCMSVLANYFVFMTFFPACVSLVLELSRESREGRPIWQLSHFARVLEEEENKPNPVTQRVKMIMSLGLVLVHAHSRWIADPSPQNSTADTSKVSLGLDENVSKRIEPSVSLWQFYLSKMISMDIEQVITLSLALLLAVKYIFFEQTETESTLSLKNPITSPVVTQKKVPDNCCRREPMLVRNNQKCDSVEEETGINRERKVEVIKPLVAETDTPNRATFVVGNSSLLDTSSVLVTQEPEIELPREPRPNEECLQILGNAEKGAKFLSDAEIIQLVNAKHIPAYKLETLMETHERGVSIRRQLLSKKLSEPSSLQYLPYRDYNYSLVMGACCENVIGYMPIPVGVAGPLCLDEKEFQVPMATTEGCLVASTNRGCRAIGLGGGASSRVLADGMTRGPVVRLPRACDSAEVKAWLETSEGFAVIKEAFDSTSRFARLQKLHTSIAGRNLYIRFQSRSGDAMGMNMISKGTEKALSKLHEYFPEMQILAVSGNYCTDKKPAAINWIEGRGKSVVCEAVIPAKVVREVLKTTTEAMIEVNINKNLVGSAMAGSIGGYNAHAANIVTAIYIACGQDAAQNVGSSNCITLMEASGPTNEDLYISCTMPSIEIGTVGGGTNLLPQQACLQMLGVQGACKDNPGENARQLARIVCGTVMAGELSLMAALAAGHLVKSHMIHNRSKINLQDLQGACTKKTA
Test: not given
Parameters: species or system Escherichia coli
Conditions: not given

Compound	IC50	Ki
CCCCCCCCNC(C)C(O)c1ccc(SC(C)C)cc1 (stereo not drawn) [SULOCTIDIL]	Not Active	–
O=c1[nH]c(=O)n(C2CCCO2)cc1F (stereo not drawn) [TEGAFUR]	Not Active	–
CC(=N)S [THIOACETAMIDE]	Not Active	–
Cc1ccc(C(=O)c2ccc(CC(=O)O)n2C)cc1 [TOLMETIN]	Not Active	–
CC(=O)OCC(COC(C)=O)OC(C)=O [TRIACETIN]	Not Active	–
TRANSPLATIN	Not Active	Not Active
ZIRCONIUM(IV) CHLORIDE	Not Active	Not Active

Biological target: T3, Polyunsaturated fatty acid lipoxygenase ALOX15 (Oryctolagus cuniculus, UniProt P12530);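 note: inhibition of 15-lipoxygenase enzyme activity measured with linoleic acid as the substrate; in other assays of this panel Not Active means under 50% inhibition at 10 µM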
T3 sequence (P12530 whole entry): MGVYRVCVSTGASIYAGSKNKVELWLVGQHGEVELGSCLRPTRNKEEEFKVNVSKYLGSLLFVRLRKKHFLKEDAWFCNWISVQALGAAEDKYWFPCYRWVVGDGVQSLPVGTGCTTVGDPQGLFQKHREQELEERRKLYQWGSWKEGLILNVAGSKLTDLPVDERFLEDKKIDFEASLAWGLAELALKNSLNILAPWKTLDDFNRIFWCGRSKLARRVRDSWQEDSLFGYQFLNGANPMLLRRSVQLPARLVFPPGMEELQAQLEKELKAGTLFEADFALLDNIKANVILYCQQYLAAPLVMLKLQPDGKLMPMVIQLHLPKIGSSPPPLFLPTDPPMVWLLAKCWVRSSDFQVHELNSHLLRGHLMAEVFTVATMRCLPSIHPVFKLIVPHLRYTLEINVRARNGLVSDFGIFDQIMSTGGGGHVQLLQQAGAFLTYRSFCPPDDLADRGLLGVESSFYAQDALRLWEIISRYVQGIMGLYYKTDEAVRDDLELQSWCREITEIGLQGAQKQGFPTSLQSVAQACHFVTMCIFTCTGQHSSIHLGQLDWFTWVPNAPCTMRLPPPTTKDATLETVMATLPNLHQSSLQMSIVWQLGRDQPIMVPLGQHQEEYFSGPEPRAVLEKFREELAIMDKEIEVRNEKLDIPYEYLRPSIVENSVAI
Test: biochemical
Assay type: tissue-based, Reticulocytes
Conditions: reticulocytes

Compound	IC50	Ki
CCCCCCCCNC(C)C(O)c1ccc(SC(C)C)cc1 (stereo not drawn) [SULOCTIDIL]	Not Active	–
O=c1[nH]c(=O)n(C2CCCO2)cc1F (stereo not drawn) [TEGAFUR]	Not Active	–
CC(=N)S [THIOACETAMIDE]	Not Active	–
Cc1ccc(C(=O)c2ccc(CC(=O)O)n2C)cc1 [TOLMETIN]	Not Active	–
CC(=O)OCC(COC(C)=O)OC(C)=O [TRIACETIN]	Not Active	–
TRANSPLATIN	Not Active	Not Active
ZIRCONIUM(IV) CHLORIDE	Not Active	Not Active

Biological target: T4, Muscarinic acetylcholine receptor M4 (Homo sapiens, UniProt P08173); note: in other assays of this panel Not Active means under 50% inhibition at 10 µM
T4 sequence (P08173 whole entry): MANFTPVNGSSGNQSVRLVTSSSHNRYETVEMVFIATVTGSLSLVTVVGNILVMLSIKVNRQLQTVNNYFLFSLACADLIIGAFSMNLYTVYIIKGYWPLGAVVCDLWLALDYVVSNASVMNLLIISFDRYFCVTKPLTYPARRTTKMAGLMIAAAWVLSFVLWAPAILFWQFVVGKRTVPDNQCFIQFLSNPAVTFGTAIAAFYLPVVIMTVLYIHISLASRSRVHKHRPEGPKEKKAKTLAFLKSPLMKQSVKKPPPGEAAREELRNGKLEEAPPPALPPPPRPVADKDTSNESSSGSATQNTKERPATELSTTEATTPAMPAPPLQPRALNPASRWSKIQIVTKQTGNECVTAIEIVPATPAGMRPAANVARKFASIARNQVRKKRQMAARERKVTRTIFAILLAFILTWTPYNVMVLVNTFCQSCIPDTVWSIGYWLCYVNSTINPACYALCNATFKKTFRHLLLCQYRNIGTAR
Test: not given
Assay type: cell membranes, CHO-K1, Membrane
Conditions: cho-k1

Compound	IC50	Ki
O=c1[nH]c(=O)n(C2CCCO2)cc1F (stereo not drawn) [TEGAFUR]	Not Active	–
CC(=N)S [THIOACETAMIDE]	Not Active	–
Cc1ccc(C(=O)c2ccc(CC(=O)O)n2C)cc1 [TOLMETIN]	Not Active	–
CC(=O)OCC(COC(C)=O)OC(C)=O [TRIACETIN]	Not Active	–
TRANSPLATIN	Not Active	Not Active
ZIRCONIUM(IV) CHLORIDE	Not Active	Not Active

Same assay, conditions: read-out: IC50

Compound	IC50 [µM]
CCCCCCCCNC(C)C(O)c1ccc(SC(C)C)cc1 (stereo not drawn) [SULOCTIDIL]	4.56

Same assay, conditions: read-out: Ki

Compound	Ki [nM]
CCCCCCCCNC(C)C(O)c1ccc(SC(C)C)cc1 (stereo not drawn) [SULOCTIDIL]	636

Biological target: Epidermal growth factor receptor (Homo sapiens, UniProt P00533)
Test: DRUGMATRIX: Protein Tyrosine Kinase, EGF Receptor enzyme inhibition (substrate: Poly(Glu:Tyr))
Assay type: cell-based, Insect cells
Conditions: Not Active = under 50% inhibition at 10 µM; read-out: IC50

Compound	IC50 [nM]
CCCCCCCCNC(C)C(O)c1ccc(SC(C)C)cc1 (stereo not drawn) [SULOCTIDIL]	794

Same assay, conditions: insect cells; Not Active = under 50% inhibition at 10 µM

Compound	IC50	Ki
O=c1[nH]c(=O)n(C2CCCO2)cc1F (stereo not drawn) [TEGAFUR]	Not Active	–
CC(=N)S [THIOACETAMIDE]	Not Active	–
Cc1ccc(C(=O)c2ccc(CC(=O)O)n2C)cc1 [TOLMETIN]	Not Active	–
CC(=O)OCC(COC(C)=O)OC(C)=O [TRIACETIN]	Not Active	–
ZIRCONIUM(IV) CHLORIDE	Not Active	Not Active

Same assay, conditions: insect cells; Not Active = under 50% inhibition at 10 µM; read-out: IC50

Compound	IC50 [nM]
TRANSPLATIN	1060

Biological target: Cytochrome P450 3A4 (Homo sapiens, UniProt P08684); note: in other assays of this panel Not Active means under 50% inhibition at 10 µM
Test: not given
Conditions: bti-tn-5b1-4

Sequence of Cytochrome P450 3A4 (P08684 whole entry): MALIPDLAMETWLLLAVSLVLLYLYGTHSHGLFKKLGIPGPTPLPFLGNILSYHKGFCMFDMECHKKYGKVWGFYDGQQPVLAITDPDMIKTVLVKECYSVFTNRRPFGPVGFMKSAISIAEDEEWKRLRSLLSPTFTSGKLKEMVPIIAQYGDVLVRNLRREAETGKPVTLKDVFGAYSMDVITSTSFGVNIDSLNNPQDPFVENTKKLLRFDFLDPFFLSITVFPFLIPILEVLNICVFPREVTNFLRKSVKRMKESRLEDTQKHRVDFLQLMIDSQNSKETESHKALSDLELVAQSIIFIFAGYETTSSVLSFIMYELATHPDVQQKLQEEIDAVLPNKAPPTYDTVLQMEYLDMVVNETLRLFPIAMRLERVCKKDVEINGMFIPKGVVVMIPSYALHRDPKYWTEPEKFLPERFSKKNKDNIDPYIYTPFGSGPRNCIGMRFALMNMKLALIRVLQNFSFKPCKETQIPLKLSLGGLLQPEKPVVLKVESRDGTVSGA

Compound	IC50	Ki
CCCCCCCCNC(C)C(O)c1ccc(SC(C)C)cc1 (stereo not drawn) [SULOCTIDIL]	Not Active	Not Active
O=c1[nH]c(=O)n(C2CCCO2)cc1F (stereo not drawn) [TEGAFUR]	Not Active	Not Active
CC(=N)S [THIOACETAMIDE]	Not Active	Not Active
Cc1ccc(C(=O)c2ccc(CC(=O)O)n2C)cc1 [TOLMETIN]	Not Active	Not Active
CC(=O)OCC(COC(C)=O)OC(C)=O [TRIACETIN]	Not Active	Not Active
TRANSPLATIN	Not Active	Not Active
ZIRCONIUM(IV) CHLORIDE	Not Active	Not Active

Reference: ChEMBL document CHEMBL1909046, “DrugMatrix in vitro pharmacology data”
